Columns and labels:
Test in all cases: Example B2 herbicidal action, post-emergence, pots in glasshouse, damage score 0-10
Format in all cases: in vivo
Conditions in all cases: application post-emergence, rate 1000 g/ha, evaluated after 13 days
Ipomea hederaceae = tested on: Ipomea hederaceae
In short: (§1)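 Damage was assessed 13 days after a post-emergence spray given to 8-day-old pot seedlings. The spray was an aqueous solution from an acetone/water (50:50) formulation with 0.5% Tween 20. Plants grew in a glasshouse at 24/16° C, 14 h light, 65% humidity, watered twice daily.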

Echinochloa crus-galli = tested on: Echinochloa crus-galli
In short: as §1

Setaria faberi = tested on: Setaria faberi
In short: as §1

Amaranthus retroflexus = tested on: Amaranthus retroflexus
In short: as §1

Solanum nigrum = tested on: Solanum nigrum
In short: as §1

| SMILES | IPOHE damage score (10=total damage to plant; 0=no damage to plant) (Ipomea hederaceae) | ECHCG damage score (10=total damage to plant; 0=no damage to plant) (Echinochloa crus-galli) | SETFA damage score (10=total damage to plant; 0=no damage to plant) (Setaria faberi) | AMARE damage score (10=total damage to plant; 0=no damage to plant) (Amaranthus retroflexus) | SOLNI damage score (10=total damage to plant; 0=no damage to plant) (Solanum nigrum) |
| --- | --- | --- | --- | --- | --- |
| CCSC(=O)OC1=C(c2c(F)ccc(Br)c2Cl)S(=O)(=O)N(CC(F)F)c2nccnc21 [Compound C107] | 6 | 5 | 3 | 5 | 7 |
| CCN1c2nccnc2C(OC(=O)C(C)C)=C(c2c(Cl)ccc(Cl)c2C(F)(F)F)S1(=O)=O [Compound C50] | 7 | 5 | 4 | 5 | 6 |
| CC(C)(C)C(=O)OC1=C(c2c(F)cccc2C(F)(F)F)S(=O)(=O)N(CC(F)F)c2nccnc21 [Compound C78] | 3 | 4 | 3 | 4 | 6 |
| Cc1ccc(C2=C(OC(=O)C(C)C)c3nccnc3N(CC(F)F)S2(=O)=O)c(Cl)c1 [Compound C136, isobutyric acid 3-(2-chloro-4-methyl-phenyl)-1-(2,2-difluoro-ethyl)-2,2-dioxo-1,2-dihydro-2-λ-6-thia-1,5,8-triaza-naphthalen-4-yl ester] | 7 | 0 | 2 | 3 | 8 |
| CCSC(=O)OC1=C(c2c(Cl)ccc(OC)c2F)S(=O)(=O)N(CC(F)F)c2nccnc21 [Compound C145] | 8 | 5 | 2 | 0 | 8 |
| CCN1c2nccnc2C(O)=C(c2cc(C(F)(F)F)ccc2C(F)(F)F)S1(=O)=O [Compound D24] | 10 | 3 | 1 | 6 | 10 |
| CCSC(=O)OC1=C(c2c(Cl)ccc(Cl)c2Cl)S(=O)(=O)N(C)c2nccnc21 [Compound C94] | 9 | 6 | 2 | 6 | 9 |
| CCSC(=O)OC1=C(c2c(Cl)ccc(Cl)c2Cl)S(=O)(=O)N(CC)c2nccnc21 [Compound C71] | 10 | 6 | 1 | 8 | 9 |
| CC(C)(C)C(=O)OC1=C(c2c(F)ccc(Cl)c2Cl)S(=O)(=O)N(CC(F)F)c2nccnc21 [Compound C20] | 10 | 8 | 0 | 10 | 10 |
| O=S1(=O)C(c2ccc(I)cc2Cl)=C(O)c2nccnc2N1CC(F)F [Compound D59] | 4 | 3 | 1 | 4 | 8 |
| CCSC(=O)OC1=C(c2c(Cl)ccc(Cl)c2Cl)S(=O)(=O)N(CC(F)F)c2nccnc21 [Compound C37] | 9 | 8 | 6 | 8 | 9 |
| O=S1(=O)C(c2c(F)cccc2C(F)(F)F)=C(O)c2nccnc2N1CC(F)F [Compound D39] | 10 | 9 | 9 | 10 | 9 |
| CCSC(=O)OC1=C(c2cc(Cl)ccc2C(F)(F)F)S(=O)(=O)N(CC)c2nccnc21 [Compound C109] | 9 | 5 | 2 | 5 | 8 |
| CCSC(=O)OC1=C(c2c(Cl)cccc2C(F)(F)F)S(=O)(=O)N(CC(F)F)c2nccnc21 [Compound C105] | 8 | 9 | 9 | 10 | 9 |
| CC(C)C(=O)OC1=C(c2cc(C(F)(F)F)ccc2Cl)S(=O)(=O)N(C=CCl)c2nccnc21 (mixture of isomers) [Compound C114] | 6 | 0 | 2 | 4 | 10 |
| O=S1(=O)C(c2ccc(C(F)(F)F)cc2C(F)(F)F)=C(O)c2nccnc2N1CC(F)F [Compound D55] | 10 | 5 | 4 | 10 | 10 |
| CC(C)(C)C(=O)OC1=C(c2c(Cl)cccc2Cl)S(=O)(=O)N(CC(F)F)c2nccnc21 [Compound C28] | 6 | 2 | 2 | 7 | 6 |
| O=S1(=O)C(c2cc(Cl)cc(C(F)(F)F)c2)=C(O)c2nccnc2N1CC(F)F [Compound D19] | 0 | 0 | 0 | 0 | 2 |
| CC(C)C(=O)OC1=C(c2ccccc2[N+](=O)[O-])S(=O)(=O)N(CC(F)F)c2nccnc21 [Compound C65] | 1 | 0 | 2 | 2 | 2 |
| CC(C)C(=O)OC1=C(c2c(Cl)ccc(Cl)c2Cl)S(=O)(=O)N(CC(F)F)c2nccnc21 [Compound C38] | 10 | 9 | 9 | 9 | 10 |
| O=S1(=O)C(c2c(Cl)cccc2C(F)(F)F)=C(O)c2c(ncc[n+]2[O-])N1CC(F)F [Compound E2] | 8 | 6 | 8 | 8 | 9 |
| CCN1c2nccnc2C(O)=C(c2cccc(C(F)(F)F)c2)S1(=O)=O [Compound D3] | 1 | 1 | 0 | 10 | 1 |
